Data taken from patent US12290073B2, “Anti-microbial compound and methods of use” (SHENZHEN UNIVERSITY, priority 2019, dated 2025).
Read-outs that look alike come from different tables or passages of the source.

Key:
Test in all cases: Anti-microbial rate of finished cotton textiles, FZ/T73023-2006 D.8 shocking method
Assay type in all cases: cell-based
[1] = system: Staphylococcus Aureus (S. aureus, ATCC 6538); conditions: for killing at 1 %: Staphylococcus aureus, ATCC6538, finishing liquid 1.0 wt %, read-out: Anti-microbial rate (%) of cotton textiles finished with compound E (1.0 wt %), S. aureus; for Anti-microbial rate (%) of cotton textiles finished with compound E (1.0 wt %), S. aureus: finishing liquid 1.0 wt %
From the text: (§1) Each of the reaction products (i.e., compound E) according to Examples 1-21 was used to prepare an anti-microbial agent (e.g., a finishing liquid), and the anti-microbial effects were different depending on compound E and conditions of use.
(§2) Remarks: 1) in the data of anti-microbial rate in Table 5: Examples 1-9 used a soaking-rolling-drying process to finish cotton fabric, where the bath ratio (i.e., the ratio of the weight of a liquid containing compound E to the weight of the cotton fabric) was 20:1, the residual liquid ratio was 90%, and the drying process was conducted at 85° C. for 30 minutes; Examples 10-18 were prepared by a soaking-high speed spinning-drying method, where the bath ratio was 20:1, the residual liquid ratio was 90%, and the drying process was conducted at 85° C. for 20 min; Examples 19-21 were prepared by a spraying-spinning-drying process with a bath ratio of 30:1, a residual liquid ratio of 85% after drying, and the drying process was conducted at 105° C. for 5 minutes.
(§3) 2) Table 5 data test method: FZ/T73023-2006 anti-microbial textiles D.8 shocking method. In addition, the inhibition zone method (FZ/T73023-2006 anti-microbial textiles—Appendix E—inhibition zone method) was used to test whether the active compound (E) was released from the finished cotton textiles, the inhibition zone test result of the 21 examples and zwitterions were 0 mm, and thus compound E was not released from the finished cotton textiles. The anti-microbial finishing agent used in the comparative experiment was zwitterion with the molecular structure
(§4) 3) The composition of the finishing liquid in Table 5 was: compound E 1.0 wt %, sodium bicarbonate 1.0 wt %, and the rest of the finishing liquid was water.

[2] = system: Escherichia Coli (E. coli, ATCC25922); conditions: for killing at 1 %: Escherichia coli, ATCC25922, finishing liquid 1.0 wt %, read-out: Anti-microbial rate (%) of cotton textiles finished with compound E (1.0 wt %), E. coli; for Anti-microbial rate (%) of cotton textiles finished with compound E (1.0 wt %), E. coli: finishing liquid 1.0 wt %
From the text: as §1, §2, §3, §4

[3] = system: Candida Albicans (C. albicans 10231); conditions: finishing liquid 1.0 wt %; for killing at 1 %: Candida albicans, read-out: Anti-microbial rate (%) of cotton textiles finished with compound E (1.0 wt %), C. albicans
From the text: as §1, §2, §3, §4

In the case of CCCCCCCCCCCCCC[n+]1ccn(CCCNc2nc(C)nc(Cl)n2)c1 [Example 7], the killing at 1 % ([1]; times of washing 0) is reported as 100%, the killing at 1 % ([1]; times of washing 10) is reported as 99.9% and the killing at 1 % ([1]; times of washing 50) is reported as 99.9%. The killing at 1 % ([2]; times of washing 0) was 100%, the killing at 1 % ([2]; times of washing 10) was 99.9% and the killing at 1 % ([2]; times of washing 50) was 99.9%. For the same compound, the killing at 1 % ([3]; times of washing 0) was 99.9%, the killing at 1 % ([3]; times of washing 10) was 99.9% and the killing at 1 % ([3]; times of washing 50) was 98.6%.
C[n+]1ccc(COc2nc(Cl)nc(Cl)n2)cc1 [Example 15] gave a killing at 1 % ([1]; times of washing 0) of 100%, a killing at 1 % ([1]; times of washing 10) of 99.9% and a killing at 1 % ([1]; times of washing 50) of 99.1%. For the same compound, the killing at 1 % ([2]; times of washing 0) was 100%, the killing at 1 % ([2]; times of washing 10) was 99.9% and the killing at 1 % ([2]; times of washing 50) was 98.9%. It also gave a killing at 1 % ([3]; times of washing 0) of 99.9%, a killing at 1 % ([3]; times of washing 10) of 99.9% and a killing at 1 % ([3]; times of washing 50) of 92.9%.
With C[n+]1ccn(CCCNc2nc(Cl)nc(Cl)n2)c1 [Example 14] the killing at 1 % ([1]; times of washing 0) was 100%, the killing at 1 % ([1]; times of washing 10) was 99.9% and the killing at 1 % ([1]; times of washing 50) was 99.5%. The killing at 1 % ([2]; times of washing 0) was 100%, the killing at 1 % ([2]; times of washing 10) was 99.9% and the killing at 1 % ([2]; times of washing 50) was 99.1%. For the same compound, the killing at 1 % ([3]; times of washing 0) was 99.9%, the killing at 1 % ([3]; times of washing 10) was 99.9% and the killing at 1 % ([3]; times of washing 50) was 99.9%.
CCCCCCCCCCCC[n+]1cc[n+](CCCCCCCCCCCC)c(CCSc2nc(Cl)nc(Cl)n2)c1 [Example 16] was tested, and the killing at 1 % ([1]; times of washing 0) was 100%, the killing at 1 % ([1]; times of washing 10) was 99.9% and the killing at 1 % ([1]; times of washing 50) was 99.9%. For the same compound, the killing at 1 % ([2]; times of washing 0) was 100%, the killing at 1 % ([2]; times of washing 10) was 99.9% and the killing at 1 % ([2]; times of washing 50) was 99.8%. The killing at 1 % ([3]; times of washing 0) was 99.9%, the killing at 1 % ([3]; times of washing 10) was 99.9% and the killing at 1 % ([3]; times of washing 50) was 93.6%.
CCCCCCCCCC[n+]1ccc(CCOc2nc(Cl)nc(Br)n2)cc1 [Example 8] gave a killing at 1 % ([1]; times of washing 0) of 100%, a killing at 1 % ([1]; times of washing 10) of 99.9% and a killing at 1 % ([1]; times of washing 50) of 99.9%. For the same compound, the killing at 1 % ([2]; times of washing 0) was 100%, the killing at 1 % ([2]; times of washing 10) was 99.9% and the killing at 1 % ([2]; times of washing 50) was 99.5%. For the same compound, the killing at 1 % ([3]; times of washing 0) was 99.9%, the killing at 1 % ([3]; times of washing 10) was 99.9% and the killing at 1 % ([3]; times of washing 50) was 98.9%.
C[N+](C)(C)CCNc1nc(Cl)nc(Cl)n1 [Example 3] gave a killing at 1 % ([1]; times of washing 0) of 100%, a killing at 1 % ([1]; times of washing 10) of 99.9% and a killing at 1 % ([1]; times of washing 50) of 99.9%. The killing at 1 % ([2]; times of washing 0) was 100%, the killing at 1 % ([2]; times of washing 10) was 99.9% and the killing at 1 % ([2]; times of washing 50) was 99.2%. It also gave a killing at 1 % ([3]; times of washing 0) of 99.9%, a killing at 1 % ([3]; times of washing 10) of 99.9% and a killing at 1 % ([3]; times of washing 50) of 99.9%.
Compound Clc1nc(Cl)nc(OCCC[P+](c2ccccc2)(c2ccccc2)c2ccccc2)n1 [Example 20] has a killing at 1 % ([1]; times of washing 0) of 100%, a killing at 1 % ([1]; times of washing 10) of 99.9% and a killing at 1 % ([1]; times of washing 50) of 97.9%. It also gave a killing at 1 % ([2]; times of washing 0) of 100%, a killing at 1 % ([2]; times of washing 10) of 99.9% and a killing at 1 % ([2]; times of washing 50) of 95.9%. The killing at 1 % ([3]; times of washing 0) was 99.9%, the killing at 1 % ([3]; times of washing 10) was 99.9% and the killing at 1 % ([3]; times of washing 50) was 92.9%.
In the case of Clc1nc(Cl)nc(OCCC[P+](c2ccccc2)(c2ccccc2)c2ccccc2)n1.[Br-] [Example 21], the “Anti-microbial rate (%) of cotton textiles finished with compound E (1.0 wt %), S. aureus” value (“Anti-microbial rate (%) … S. aureus” below) ([1]; times of washing 0) is reported as 99.99%, the “Anti-microbial rate (%) … S. aureus” value ([1]; times of washing 10) is reported as 99.9% and the “Anti-microbial rate (%) … S. aureus” value ([1]; times of washing 50) is reported as 98.9%. The “Anti-microbial rate (%) of cotton textiles finished with compound E (1.0 wt %), E. coli” value (shortened to “Anti-microbial rate (%) … E. coli”) ([2]; times of washing 0) was 99.99%, the “Anti-microbial rate (%) … E. coli” value ([2]; times of washing 10) was 99.9% and the “Anti-microbial rate (%) … E. coli” value ([2]; times of washing 50) was 96.9%. The “Anti-microbial rate (%) of cotton textiles finished with compound E (1.0 wt %), C. albicans” value (shortened to “Anti-microbial rate (%) … C. albicans”) ([3]; times of washing 0) was 99.9%, the “Anti-microbial rate (%) … C. albicans” value ([3]; times of washing 10) was 99.9% and the “Anti-microbial rate (%) … C. albicans” value ([3]; times of washing 50) was 93.9%.
